The values below come from EP4650362A1, “NEUROPROTECTIVE PSD-95 POLYPEPTIDE INHIBITOR AND USE THEREOF” (Beijing Tuo Jie Biopharmaceutical Co. Ltd., priority 2023, dated 2024).

One data set concerns the target T1, human PSD95-PDZ2 (Homo sapiens, UniProt P78352).
T1 construct: PDZ2 (155-249, the Flag-His-Avitag-TEVsite tag is italicized); made in house; host or cells: E. coli BL21-DE3 (PET vector)
The data set can be described thus: competitive ELISA, affinity for human PSD95-PDZ2. It counts as binding. An excerpt:
The objective of this test example was to determine the affinities of polypeptide compounds for human PSD95-PDZ2 using competitive ELISAs.
The amino acid sequence of PDZ2 protein was designed using human PSD95 (Uniprot Entry: P78352) as a template for PDZ: PDZ2 (155-249, the Flag-His-Avitag-TEVsite tag is italicized and was subsequently used for purification and biotinylation): […]
[…] (SEQ ID NO. 62). The PDZ2 gene was constructed onto a PET expression vector, and induced expression was performed using BL21-DE3 E. coli cells under conditions of 37 °C and 1 mM IPTG 4 h. Then centrifugation was performed at 10,000 g at 4 °C for 10 min, and the cell pellets were collected, resuspended in 1× PBS solution, and then lysed using a homogenizer. The lysate was centrifuged at high speed, and the supernatant was collected and filtered through a 0.45 µm membrane. A Ni-Sepharose affinity column was equilibrated with 5 column volumes of a 20 mM phosphate buffer (pH 8.0). The sample was centrifuged at high speed to remove impurities and loaded onto the column for binding. The column was rinsed with the 20 mM phosphate buffer until the A280 reading dropped to the baseline. Gradient elution was then performed with the 20 mM phosphate buffer and 0-500 mM imidazole. A protein was collected, and whether it was the target protein was determined. The purified sample described above was buffer-exchanged into 1× PBS solution, and the resulting solution was concentrated to a volume of 2 mL and further purified using a Superdex200 gel chromatography column (GE) equilibrated with 1× PBS. The target peak was collected and aliquoted for later use.
PSD95-PDZ2 (the tag was removed by TEV enzyme) was diluted with 1× PBS buffer to 1 µg/mL, added to a 96-well microplate (Corning, 9018, 25/box 96-well clear flat bottom plate) at 100 µL/well, and left to stand overnight at 4 °C for 16-20 h. After the liquid was discarded, the plate was washed three times with PBST (pH 7.4, 0.05% Tween-20) buffer, and a 4% BSA blocking solution diluted with PBST buffer was then added (300 µL/well). The plate was blocked by incubation in an incubator at 37 °C for 1 h. After the blocking was complete, the blocking solution was discarded, and the plate was washed three times with PBST buffer. Biotin-NA-1, at a constant concentration of 0.3 µM, and the test compounds, having a starting concentration of 100 µM and serially diluted ten-fold with PBS buffer to seven concentrations (100, 10, 1, 0.1, 0.01, 0.001, 0.0001, and 0 µM), were then added, and the plate was incubated in an incubator at 37 °C for 1 h. After the incubation was complete, the reaction solutions in the microplate were discarded, and the plate was washed three times with PBST. 100 µL of HRP-SA secondary antibody (diluted at 1:2000) was added to each well, and the plate was incubated at 37 °C for 1 h. After the plate was washed three times with PBST, 100 µL of TMB chromogenic substrate was added. The plate was incubated at room temperature for 1-3 min, and 100 µL of 1 M sulfuric acid was added to stop the reaction.
The absorbance at 450 nm was measured using a SpectraMax M5 microplate reader, and non-linear fitting was performed using GraphPad Prism 9 to calculate the binding IC50 values of the test compounds to PSD95-PDZ2 protein.
For orientation: In an ELISA, binding on a coated surface is turned into a signal by an enzyme label.

Data set [1] is described as follows: pharmacokinetic study in rats, single intravenous bolus injection. Type of data set: in vivo, SD rats. The conditions noted are these: rat, in vivo, iv. As for the experimental part: With male SD rats as test animals, the pharmacokinetic behavior of polypeptide compounds administered via single intravenous bolus injection in rats (plasma) was studied.
Male SD rats weighing 170 to 200 grams and aged 4-6 weeks were purchased from Beijing Vital River Laboratory Animal Technology Co., Ltd. The polypeptide compounds were dissolved in 1× PBS, and the polypeptide compound solutions were then administered via intravenous bolus injection over 10 min at a dose of 3 nmol/g, with three animals per group. At each of the time points of 2 min, 8 min, 15 min, 30 min, 45 min, 60 min, and 120 min after the end of bolus injection, 0.2 mL of blood was collected and transferred to an EDTA-K2 anticoagulation centrifuge tube. The whole blood sample was centrifuged at 4 °C at 4000 g for 5 min, and a plasma sample was obtained by separation and cryopreserved at -80 °C.
The pharmacokinetic parameters of polypeptide compound 22, administered via intravenous bolus injection, in rats were determined using a similar method, with the difference being that an enzyme inhibitor was added immediately after blood collection.
The plasma concentrations of the test compounds were determined using the method in Test Example 3.4.3. Plasma concentration-time curves were plotted, and the pharmacokinetic parameters were calculated using PKSolver software. The experimental results are shown in Table 5-1, Table 5-2, and FIG. 3.

SMILES strings stand for the structures. Non-standard residues stand in square brackets, D forms with d. Residues, ends and D or L forms follow the SMILES beside them.

Broadly, the IC50 is the point on the concentration scale where inhibition reaches its midpoint. Low readings indicate inhibition by little substance, high ones a need for much substance. As a reminder, the half-life is the time in which the quantity being followed falls by half. For `CC[C@H](C)[C@H](NC(=O)[C@H](CO)NC(=O)[C@H](CO)NC(=O)[C@H](CC(C)C)NC(=O)[C@@H](CCCCN)NC(=O)[C@H](CCCNC(=N)N)NC(=O)[C@H](CCCNC(=N)N)NC(=O)[C@@H](CCCNC(=N)N)NC(=O)[C@H](CCC(N)=O)NC(=O)[C@@H](CCCNC(=N)N)NC(=O)[C@H](CCCNC(=N)N)NC(=O)[C@H](CCCCN)NC(=O)[C@H](CCCCN)NC(=O)[C@@H](CCCNC(=N)N)NC(=O)CNC(=O)[C@@H](N)Cc1ccc(O)cc1)C(=O)N[C@@H](CCC(=O)O)C(=O)N[C@@H](CO)C(=O)N[C@@H](CC(=O)O)C(=O)N[C@H](C(=O)O)C(C)C` [NoNO42, YGrKKRrQrRRkLSSIESDV, reference compound] (H-YG[dR]KKR[dR]Q[dR]RR[dK]LSSIESDV-OH), the IC50 at human PSD95-PDZ2 came out at 0.917 µM. In data set [1] (male, SD), this compound had a half-life of 2.4 min. Besides, in data set [1], the AUClast/dose is reported as 25 and the half-lives result is “less than 3 min”.
